Experimental findings from US9688966B2, “Compositions comprising cellobiose dehydrogenase from Pycnoporus cinnabarinus and their use for the degradation of lignocellulosic biomass” (INSTITUT NATIONAL DE LA RECHERCHE AGRONOMIQUE, priority 2011, dated 2017) are described below.

Each structure is given as a SMILES string.

The target in this assay is Pycnoporus cinnabarinus ss3 cellobiose dehydrogenase, recombinant (rCDH, C-terminal (His)6 tag, expressed in Pichia pastoris; GenBank HQ825322) (Trametes cinnabarina, UniProt F1DFN2). The experiment in a line: Kinetic parameters of purified rCDH for electron acceptors (cellobiose oxidation, 30° C., pH 4.5). The format is biochemical. The procedure: To measure enzyme activities in the P. cinnabarinus culture supernatant, each aliquot was centrifuged for 5 min at 3500 rpm and filtered through a 0.45 μm membrane (MILLIPORE, Bedford, Mass., USA). CDH activities were determined by monitoring the reduction of 0.2 mM 2,6-dichlorophenol indophenol (DCPIP) in 100 mM sodium acetate buffer (pH 5) containing 2 mM cellobiose and 4 mM of sodium fluoride (sodium fluoride was used as a laccase inhibitor). The decrease in absorption at 520 nm (ε=6800 M^−1·cm^−1) was monitored at 30° C. for 1 min. Alternatively, CDH activity was determined by monitoring the reduction of 50 μM cytochrome c (cyt c) in 100 mM sodium-acetate buffer (pH 5) containing 2 mM cellobiose. The decrease in absorption at 550 nm (ε=33,700 M^−1·cm^−1) was monitored at 30° C. for 1 min. Glucose oxidase was measured by using the D-gluconic acid/D-glucono-δ-lactone assay (MEGAZYME). Laccase activity was determined quantitatively by monitoring the oxidation of 5 mM ABTS (2,2′-azino-bis(3-ethylbenzthiazoline-6-sulfonic acid)) at 420 nm (extinction coefficient […] cm.^−1) in the presence of 50 mM NaK tartrate, pH 4.0. Lignin peroxidase activity was determined spectrophotometrically at 30° C. by the method of Tien and Kirk (1988, Methods Enzymol., vol. 161, pp: 238-249). Manganese peroxidase activity was determined spectrophotometrically at 30° C. by the method of Paszczynski et al. (1985, FEMS Microbiol. Lett. 29:37-41) using H2O2 and vanillylacetone as substrate. Enzyme activity was expressed in international units (IU). One unit of activity is defined as the quantity of enzyme that transforms 1 μmol of substrate in one minute.
Pycnoporus cinnabarinus ss3 cellobiose dehydrogenase, recombinant (rCDH, C-terminal (His)6 tag, expressed in Pichia pastoris; GenBank HQ825322), sequence (F1DFN2 1-750): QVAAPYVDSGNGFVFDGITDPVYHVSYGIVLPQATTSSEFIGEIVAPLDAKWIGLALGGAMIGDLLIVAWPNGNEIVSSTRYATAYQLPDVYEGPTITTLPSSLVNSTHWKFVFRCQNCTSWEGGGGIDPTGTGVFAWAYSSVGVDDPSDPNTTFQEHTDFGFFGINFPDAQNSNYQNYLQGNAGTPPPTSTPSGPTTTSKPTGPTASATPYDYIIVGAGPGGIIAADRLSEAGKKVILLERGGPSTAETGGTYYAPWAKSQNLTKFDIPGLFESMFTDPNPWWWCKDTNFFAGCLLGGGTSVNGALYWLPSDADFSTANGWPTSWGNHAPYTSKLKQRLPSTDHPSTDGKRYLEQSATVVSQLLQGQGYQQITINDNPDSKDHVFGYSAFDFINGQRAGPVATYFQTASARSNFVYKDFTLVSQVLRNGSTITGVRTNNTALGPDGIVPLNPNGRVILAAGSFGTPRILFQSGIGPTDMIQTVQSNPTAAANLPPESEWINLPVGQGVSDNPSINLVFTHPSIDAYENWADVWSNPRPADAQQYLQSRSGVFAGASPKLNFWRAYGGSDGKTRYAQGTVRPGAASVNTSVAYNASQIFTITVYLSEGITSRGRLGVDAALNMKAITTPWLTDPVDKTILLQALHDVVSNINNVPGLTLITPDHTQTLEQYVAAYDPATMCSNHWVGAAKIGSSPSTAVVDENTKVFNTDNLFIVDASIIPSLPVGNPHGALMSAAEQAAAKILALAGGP
The kinetic parameters (Vmax and Km) were determined for cellobiose oxidation measured at 30° C. in 50 mM citrate phosphate buffer pH 4.5 using DCPIP or cytochrome c. The concentration of cellobiose ranged from 10 to 700 μM with both electron acceptors (DCPIP and cytochrome c). Triplicates were run to ensure reliable kinetic parameter determination.
Graphpad prism v.4 (Graphpad Software) was used for the nonlinear regression calculation and kinetic parameter determination.

[1] abbreviates: electron acceptor DCPIP, cellobiose as electron donor, 30° C., pH 4.5, apparent.

The term kcat denotes the number of substrate molecules converted per active site and unit of time at saturation. By kcat/KM is commonly meant the turnover number divided by the Michaelis constant. Consider `O=C1C(Cl)=CC(=Nc2ccc(O)cc2)C=C1Cl` [DCPIP, 2,6-dichlorophenol indophenol], for which, for the setting “DCPIP, on cellobiose oxidation”, the Vmax is listed as 22.2 U·mg^−1. Moreover, under setting [1], the Vmax was 22.2 µmol/min/mg, the kcat came to 40.8 s⁻¹ and the kcat/KM was 1.148e+06 M⁻¹ s⁻¹.
